Measurements reported in paper PMC7708446, “^18F-meta-fluorobenzylguanidine (^18F-mFBG) to monitor changes in norepinephrine transporter expression in response to therapeutic intervention in neuroblastoma models” (Scientific Reports, 2020).
Blank lines part the entries; values can stand above or below the compound they belong to.

How the values were obtained:
[1] = tested on: NB tumours; design: method as in PMID 15490487, PMID 3181182, PMID 22700000; conditions: NB patients; cited from earlier work
[2] = biological target: T1, NET-1 (Homo sapiens, UniProt P23975); assay: ^18F-mFBG / ^123I-mIBG uptake in NB cell lines with and without desipramine; type: cell-based; conditions: 1 h at 37 °C, rank among Kelly, SK-N-SH, NBLS
T1 construct: SK-N-SH, SK-N-BE(2)C, Kelly, NBLS human NB cell lines; endogenous in cells; host or cells: SK-N-SH, SK-N-BE(2)C, Kelly, NBLS human neuroblastoma cell lines
T1 sequence (P23975 whole entry): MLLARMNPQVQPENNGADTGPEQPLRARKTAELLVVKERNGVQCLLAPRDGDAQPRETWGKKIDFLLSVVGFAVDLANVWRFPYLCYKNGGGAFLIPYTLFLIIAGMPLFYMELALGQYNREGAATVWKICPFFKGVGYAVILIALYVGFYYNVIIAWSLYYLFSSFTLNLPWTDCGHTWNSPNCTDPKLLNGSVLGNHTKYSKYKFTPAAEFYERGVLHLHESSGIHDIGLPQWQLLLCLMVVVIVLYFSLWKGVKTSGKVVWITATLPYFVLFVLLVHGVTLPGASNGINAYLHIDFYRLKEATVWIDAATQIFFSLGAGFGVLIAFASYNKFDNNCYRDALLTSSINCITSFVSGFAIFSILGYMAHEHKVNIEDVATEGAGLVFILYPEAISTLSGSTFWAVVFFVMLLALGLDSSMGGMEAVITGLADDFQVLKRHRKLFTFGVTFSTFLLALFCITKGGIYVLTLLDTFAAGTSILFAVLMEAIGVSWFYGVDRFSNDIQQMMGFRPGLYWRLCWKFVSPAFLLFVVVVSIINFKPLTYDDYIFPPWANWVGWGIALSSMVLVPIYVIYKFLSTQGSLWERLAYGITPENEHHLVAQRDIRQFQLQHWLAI
Description: Figure 1 (a) Simplified radiosynthesis scheme of ^18F-mFBG by copper-mediated deborylation. (b) Total NET-1 protein expression in selected NB cell lines determined by Western blot. Full length blots are presented in Supplementary Figure WB1. […] Data are presented as mean ± SEM, n ≥ 2 per group, performed in triplicate. Graphs are generated using GraphPad Prism (v 8.4.1), https://www.graphpad.com.
For each cell line the cell-associated radioactivity was normalised to the number of cells and then each group was presented as a percentage of the signal acquired for SK-N-BE(2)C cells (mean of n = 3 independent experiments performed in triplicate ± SEM).

[3] = Biodistribution and PET statements pooled over Kelly and SK-N-BE(2)C xenograft-bearing mice; type: in vivo; conditions: ^123I-mIBG 24 h p.i.
Description: When the tumours reached approximately 100–200 mm^3, mice were anaesthetised with an isoflurane/O2 mixture (1.5–2.0% v/v) and intravenously injected with either ^18F-mFBG (~ 7.5 MBq) or ^123I-mIBG (~ 20 MBq). Mice were then imaged using an Albira PET/SPECT/CT scanner (Bruker, Coventry, UK). […] Acquisition, reconstruction and image analysis were performed as described previously. Following the final scan, the mice were sacrificed and the major organs were excised, weighed and their associated radioactivity was measured using a γ-counter. Biodistribution and image quantification were expressed as a percentage of injected dose per gram of tissue (%ID/g), whereby 1 cm^3 on PET acquisitions were assumed to equal 1 g (n ≥ 3 mice ± SD).

[4] = tested on: Kelly cells; assay: Cell viability (CellTiter-Glo) after 72 h AZD2014, Kelly; type: cell-based; conditions: Homo sapiens, read-out: GI50 (concentration that reduced cell viability by 50%)
Description: (§1) To assess the cellular response to mTORC1/2 inhibition, Kelly and SK-N-BE(2)C cell lines, both of which over-express MYCN protein (Fig. 1b), were incubated with AZD2014 (0 to 1 µM) for 72 h. […] Key substrates of AZD2014- induced mTORC1/2 inhibition were assessed by WB.
(§2) Supplementary Figure 5: NB cell viability after 72 h treatment with AZD2014 (0–1 µM) analysed by Celltiter Glo assay. Data presented as mean ± SEM, n ≥ 3 per group, performed in triplicate. Graph is generated using GraphPad Prism (v 8.4.1), https://www.graphpad.com.

[5] = tested on: SK-N-BE(2)C cells; assay: Cell viability (CellTiter-Glo) after 72 h AZD2014, SK-N-BE(2)C; type: cell-based; conditions: Homo sapiens, read-out: GI50 (concentration that reduced cell viability by 50%)
Description: as §1, §2

[6] = tested on: NET-1; assay: Radiotracer cell uptake after AZD2014 pre-treatment, Kelly cells; type: cell-based, human; conditions: for increase of ^18F-mFBG uptake: vs untreated control
Description: (§3) To investigate potential changes in NET-1 function following an AZD2014-induced increase in protein expression, ^18F-mFBG and ^123I-mIBG cell uptake assays were performed in Kelly and SK-N-BE(2)C cells incubated with the drug (0–500 nM) for 24 and 72 h. […] Perhaps due to the already high expression of NET-1, increase in radiotracer uptake was less evident in SK-N-BE(2)C cells (39 ± 9% and 62 ± 5%, respectively). […].
(§4) To test the response of cell uptake using the mTOR1/2 inhibitor AZD2014 (0–500 nM) (vistusertib, Stratech Scientific, Ely, UK), a stock solution of the drug (10 mM) in dimethyl sulfoxide (DMSO, Sigma Aldrich, Gillingham, UK) was initially prepared and then diluted in culture medium to a final DMSO concentration of < 0.1%. Radiotracer uptake was assessed in cells 24 and 72 h after incubation with AZD2014. The uptake was normalised to cell viability as performed using the CellTiter-Glo assay (Promega, Southampton, UK). The data are expressed as the average of n = 3 independent experiments (performed in triplicate) ± SEM.

[7] = biological target: T1, NET-1; assay: Radiotracer cell uptake after AZD2014 pre-treatment, SK-N-BE(2)C cells; type: cell-based; conditions: for increase of ^18F-mFBG uptake: vs untreated control
Description: as §3, §4

[8] = tested on: mTORC1/2; assay: Western blot of mTORC1/2 substrates in Kelly and SK-N-BE(2)C cells; type: cell-based, human
Description: (§5) Western blotting (WB) was performed as previously described. Antibodies were obtained from Cell Signalling Technologies (London, UK) unless stated otherwise: GAPDH, beta-actin, p-Akt^S473, Akt, p-4EBP1^T37/46, p-S6^S240/244, S6, N-MYC (Merck Millipore, Watford, UK), NET-1 (mAbTechnologies, Stone Mountain, Georgia), anti-rabbit HRP, anti-mouse HRP. Blots were visualised with SuperSignal West Pico and Femto Chemiluminescent Substrate (Thermo Fisher Scientific, Loughborough, UK) and ChemiDoc XRS + System (BioRad, Watford, UK). Data were processed and band density analysed with ImageJ and Image Lab 6.0 (BioRad, Watford, UK).

[9] = tested on: NET-1; assay: Western blot of total NET-1 protein in SK-N-BE(2)C cells after AZD2014; type: cell-based, human; conditions: seen at 24 h, maintained at 72 h
Description: Given the potential role of Akt in NET-1 protein synthesis and surface expression, we further looked at NET-1 protein levels following AZD2014 treatment. […] In Kelly cells, the WB analysis was not sensitive enough to detect and accurately quantify the inherently low expression of the target protein.
as §5

[10] = tested on: Kelly xenografts; assay: AZD2014 treatment of Kelly xenograft mice (body weight, tumour growth); type: in vivo; conditions: 25 mg/kg/day
Description: All studies were conducted in compliance with licenses issued under the UK Animals (Scientific Procedures) Act 1986 and approved by the Institute of Cancer Research Animal Welfare and Ethical Review Body (AWERB) according to the United Kingdom National Cancer Research Institute Guidelines for Animal Welfare in Cancer Research (project license PCC916B22, Animals in Science Regulation Unit, Home Office Science, London, UK)[65]. […]; 20–22 g) obtained from an in-house breeding colony were used in the studies. Animals were housed in a temperature-controlled facility with 12 h on–12 h off light cycle and provided water and laboratory rodent food ad libitum. Subcutaneous xenografts were generated by injection of either Kelly (5 × 10^6/0.1 mL PBS/Matrigel 30% v/v; BD Matrigel Matrix, BD Bioscience, San Jose, California, US) or SK-N-BE(2)C (1 × 10^6/0.1 mL PBS/Matrigel) into the lower flank. For the treatment studies, AZD2014 stock solution in DMSO was diluted in PEG400 to a final concentration of 2 mg/mL (10% DMSO maximum). When tumours reached ~ 100 mm^3 (calliper measurements using formula: Volume = (Width(2) × Length)/2), mice were treated daily, for a total of either 1, 3 or 7 days, by oral gavage with AZD2014 (20 or 25 mg/kg/day) or vehicle control. Mice were monitored daily for body weight or other adverse effects.

[11] = tested on: mTORC1/2; assay: Ex vivo IHC/Western blot of mTOR signalling in treated tumours; design: species or system mice; conditions: Kelly xenografts 25 mg/kg/day, 3 days
Description: as §5
Formalin-fixed (10% v/v) paraffin-embedded tumours were sectioned to a thickness of 5 µm. Tumour sections underwent heat-induced epitope retrieval with a citric acid based antigen unmasking solution (H3300, Vector Laboratories, Peterborough, UK). The primary NET-1 antibody (AMT-002, Alomone Labs, Jerusalem, Israel), p-S6^S240/244 and p-4EBP1^T37/46 were added and incubated overnight at 4 °C. Endogenous peroxidases were blocked (2% H2O2 in methanol, 10 min, RT) before incubation with a secondary HRP-conjugated antibody. For chromogen development, slides were processed using a diaminobenzidine (DAB)-peroxidase substrate kit (4 min, Immpact DAB, SK-4105, Vector Laboratories, Peterborough, UK). […]

[12] = tested on: NET-1; assay: Ex vivo Western blot of NET-1 in tumour lysates of treated animals; design: species or system mice
Description: as §5

[13] = Kelly and SK-N-BE(2)C, Western blot

SMILES: N=C(N)NCc1cccc([131I])c1 [^131I-mIBG, meta-iodobenzylguanidine]
clinical response [1]: 0 to 57%

cell-associated radioactivity, SK-N-BE(2)C [2]: greatest uptake
cell-associated radioactivity, Kelly ([2]; SK-N-BE(2)C): least uptake
Tumour-to-background ratios compared with ^18F-mFBG [3]: greater
SMILES: NC(N)=NCc1cccc(I)c1 [^123I-mIBG, meta-iodobenzylguanidine, reference compound]

GI50 [5]: 307 nM
increase of ^18F-mFBG uptake ([7]; 200 nM AZD2014, 72 h): 39 ± 9%
increase of ^18F-mFBG uptake ([7]; 500 nM AZD2014, 72 h): 62 ± 5%
^123I-mIBG and ^18F-mFBG uptake ([7]; AZD2014 0–500 nM, 24 h): concentration-dependent increase
SMILES: CNC(=O)c1cccc(-c2ccc3c(N4CCOC[C@@H]4C)nc(N4CCOC[C@@H]4C)nc3n2)c1 [AZD2014]
GI50 [4]: 476 nM
increase of ^18F-mFBG uptake ([6]; 200 nM AZD2014, 72 h): 128 ± 23%
increase of ^18F-mFBG uptake ([6]; 500 nM AZD2014, 72 h): 292 ± 27%
^123I-mIBG and ^18F-mFBG uptake ([6]; AZD2014 0–500 nM, 24 h): concentration-dependent increase
MYCN protein expression [8, 13]: not robustly reduced
phosphorylation of S6 and 4EBP1 [8, 13]: concentration dependent decrease
p-Akt^S473 inhibition ([8]; both cell lines, after 72 h incubation): not sustained
p-Akt^S473 ([8]; both cell lines, early time points (3–12 h)): concentration-dependent downregulation
total NET-1 protein expression [9]: prominent and persistent increase
body weight lost compared to the vehicle control ([10]; oral gavage, 3 days post-treatment initiation): ~ 10%
tumour growth ([10]; Kelly xenografts, n = 3, p < 0.0001): impeded
mTORC1/2 inhibition in vivo (p-S6^S240/244, p-4EBP1^T37/46 IHC) [11]: failed to inhibit
NET-1 expression in tumour lysates, control vs treated ([12]; Kelly, 25 mg/kg/day 3 days, p = 0.84, n = 2): no difference
NET-1 expression in tumour lysates ([12]; SK-N-BE(2)C, 20 mg/kg/day 3 days, not significant (p = 0.07, n = 4)): increase
